Assay [1] relates to proteasome. As to the kind of experiment: Proximity labeling (BioID) with PSMA4-miniTurbo, streptavidin enrichment and DIA mass spectrometry, with proteasome inhibition. The assay is classed as cell-based, Homo sapiens. The method, then: For the “BioID” experiments, HEK293T lines were seeded at the density of approximately 1.6×10^4 cells/cm2 and incubated for 24 hours to allow cell attachment to the culture dish. The expression of BirA* or miniTurbo fusion proteins were induced by a single addition of tetracycline stock (solved in ethanol) exposing the cells to its final concentration of […] in total for 4 days. 2 hours (miniTurbo lines) or 24 hours (BirA* lines) prior to cell harvesting, 50 μM biotin was added to the culture media. For identification of proteasome substrates, PSMA4-miniTurbo or miniTurbo expressing cells were treated with 20 μM MG132 for 4 hours and/or 10 μM KB02-JQ1 for 12 hours. Upon treatment, cells were washed 3×times with PBS and harvested by trypsinization. For each sample, a pellet corresponding to 20 million cells was collected and snap-frozen in liquid nitrogen.
Cell pellets were thawed on ice were resuspended in 4.75 ml of BioID lysis buffer (50 mM Tris pH 7.5; 150 mM NaCl; 1 mM EDTA; 1 mM EGTA; 1% (v/v) Triton X-100; 1 mg/ml aprotinin; 0.5 mg/ml leupeptin; 250 U turbonuclease; 0.1% (w/v) SDS), followed by 1 hour incubation in the rotator mixer (STARLAB RM Multi-1) (15×rpm) at 4° C. to aid the lysis. Samples were then briefly sonicated in a Bioruptor Plus for 5 cycles (30 s ON/30 s OFF) at high setting and afterwards centrifuged at 20817×g, for 30 minutes at 4° C. to remove any debris.
Streptavidin coated Sepharose beads were acetylated by two successive treatments with 10 mM Sulfo-NHS-Acetate for 30 minutes at room temperature. The reaction was then quenched with 1 M Tris pH 7.5 (1:10 v/v) and then the beads were washed with 1×PBS and centrifuged at 2000×g for 1 minute at room temperature. This washing was performed 3 times in total. Cleared lysates were transferred to new tubes, 50 μl of acetylated beads added, and samples were incubated for 3 hours on the rotator (15×rpm) at 4° C. This was followed by centrifugation at 2000×g for 5 minutes at 4° C. and removal of 4.5 ml of the supernatant from each sample. […]

For assay [2], the system named is proteasome chymotrypsin-like activity. The assay is described as follows: Proteasome activity assay (LLVY-AMC cleavage) on cell lysates. The following applies: lysates of HEK293T lines expressing BirA* fusion proteins or BirA* control; 24 hours with vs without tetracycline. The assay is classed as cell-based, Homo sapiens. The method, then: Proteasome activity assay: The proteasome activity assay (PAA) was performed using the 20S proteasome activity assay kit (Millipore, APT280) following the manufacturer instructions. In short, cell pellets were thawed in ice-cold lysis buffer (50 mM HEPES pH 7.5; 5 mM EDTA; 150 mM NaCl; 1% (v/v) Triton X-100; 2 mM ATP) and left on ice for 30 minutes with short vortex steps (VWR international, VWR/444-1372) every 10 minutes. Samples were centrifuged at 20817×g, for 15 minutes at 4° C. to remove any debris. For protein amount estimation the EZQ Protein Quantitation Kit (Invitrogen, R33200) was used. 50 μg of protein extract were incubated with fluorophore-linked peptide substrate (LLVY-7-amino-4-methylcoumarin, AMC) for 60 minutes at 37° C. Proteasome activity was measured by quantification of fluorescent units from cleaved AMC at 380/460 nm using a microplate reader m1000 (Tecan).

Residues, ends and D or L forms follow the SMILES beside them. *: point of attachment. Cbz = O=C(OCc1ccccc1)*

Turning to `CC(C)C[C@@H](C=O)NC(=O)[C@H](CC(C)C)NC(=O)[C@H](CC(C)C)NC(=O)OCc1ccccc1` [MG132] (Cbz-Leu-Leu-Leu-aldehyde), the “impact on the biotinylated proteins quantified by mass spectrometry (principal component analysis)” value in assay [1] (HEK293T PSMA4-miniTurbo, 20 μM MG132 4 hours) was “clear impact”. The “number of proteins enriched relative to miniTurbo control only in presence of MG132 (potential proteasome substrates)” value in assay [1] (HEK293T PSMA4-miniTurbo, 20 μM MG132 4 hours, log 2 fold change>1 and Q value<0.05) is 296 proteins. For the same compound, the “enrichment of proteasome activators and ubiquitin in streptavidin pull downs, MG132-treated versus control cells” value in assay [1] (HEK293T cells expressing PSMA4-miniTurbo, 20 μM MG132 for 4 hours, biotin 2 hours) is “prominent enrichment of proteasome activators and ubiquitin”.
Consider `CN(C)[C@@H]1C(O)=C(C(N)=O)C(=O)[C@@]2(O)C(O)=C3C(=O)c4c(O)cccc4[C@@](C)(O)[C@H]3C[C@@H]12` [tetracycline], for which the “reduction of proteasome activity following addition of tetracycline” value in assay [2] is reported as 15-20%.

The values are drawn from patent publication US20260243776A1, “A METHOD FOR DETECTING PROTEIN TARGETS OF AN ENZYME USING A BIOTIN LIGASE” (Leibniz-Institut für Alternsforschung - …, priority 2022, published 2026).
